Results taken from ChEMBL document CHEMBL1649541, “Molecular basis and phenotype of methicillin resistance in Staphylococcus aureus and insights into new beta-lactams that meet the challenge” (Antimicrob Agents Chemother, 2009).
≈ marks a conversion by molar mass, not a printed value.

Legend:
[1] = target: T1, MecA (Staphylococcus aureus, UniProt Q7DHH4); assay: Binding affinity to methicillin-resistant Staphylococcus aureus MF535HR PBP 2a by competitive binding assay
T1 sequence (Q7DHH4 whole entry): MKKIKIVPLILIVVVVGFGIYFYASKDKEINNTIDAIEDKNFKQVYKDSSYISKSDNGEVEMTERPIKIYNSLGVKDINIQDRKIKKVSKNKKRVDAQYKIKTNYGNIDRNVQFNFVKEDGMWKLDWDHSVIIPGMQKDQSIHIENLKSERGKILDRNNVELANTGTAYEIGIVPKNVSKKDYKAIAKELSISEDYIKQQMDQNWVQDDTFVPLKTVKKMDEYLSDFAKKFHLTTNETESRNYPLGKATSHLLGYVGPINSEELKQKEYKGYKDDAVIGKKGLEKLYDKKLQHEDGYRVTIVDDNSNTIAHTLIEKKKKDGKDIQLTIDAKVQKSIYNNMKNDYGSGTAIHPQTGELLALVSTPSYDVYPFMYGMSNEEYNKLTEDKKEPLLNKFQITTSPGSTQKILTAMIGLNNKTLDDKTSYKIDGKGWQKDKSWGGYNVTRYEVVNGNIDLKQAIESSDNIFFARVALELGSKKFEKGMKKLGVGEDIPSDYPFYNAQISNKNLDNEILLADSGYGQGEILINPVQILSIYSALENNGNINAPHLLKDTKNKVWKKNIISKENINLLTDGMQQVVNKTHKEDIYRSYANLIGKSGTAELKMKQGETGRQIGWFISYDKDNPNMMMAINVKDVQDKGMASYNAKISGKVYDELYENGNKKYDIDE

[2] = target: T2, Penicillin-binding protein 2b (Staphylococcus aureus, UniProt Q9XDB3); assay: Binding affinity to methicillin-susceptible Staphylococcus aureus PBP 3
T2 sequence (Q9XDB3 whole entry): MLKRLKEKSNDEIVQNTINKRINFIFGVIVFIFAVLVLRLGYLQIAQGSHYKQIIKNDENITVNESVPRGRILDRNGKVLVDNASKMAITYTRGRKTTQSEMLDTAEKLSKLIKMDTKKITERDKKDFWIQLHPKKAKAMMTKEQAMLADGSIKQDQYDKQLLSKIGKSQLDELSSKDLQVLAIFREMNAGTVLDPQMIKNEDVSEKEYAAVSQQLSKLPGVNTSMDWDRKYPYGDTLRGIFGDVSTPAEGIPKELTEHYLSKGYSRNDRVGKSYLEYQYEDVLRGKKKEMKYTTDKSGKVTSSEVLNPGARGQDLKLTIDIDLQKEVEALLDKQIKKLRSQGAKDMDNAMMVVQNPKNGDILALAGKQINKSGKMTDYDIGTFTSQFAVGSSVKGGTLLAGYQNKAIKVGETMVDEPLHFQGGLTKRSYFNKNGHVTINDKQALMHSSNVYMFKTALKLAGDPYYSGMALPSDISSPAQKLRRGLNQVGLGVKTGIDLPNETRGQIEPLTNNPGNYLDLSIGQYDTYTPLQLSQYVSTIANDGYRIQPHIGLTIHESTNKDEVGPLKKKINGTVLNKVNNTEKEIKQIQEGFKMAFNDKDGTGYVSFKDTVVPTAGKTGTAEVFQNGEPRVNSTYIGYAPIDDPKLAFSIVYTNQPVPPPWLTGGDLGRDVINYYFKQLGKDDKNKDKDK

[3] = test system: Staphylococcus aureus; assay: Antimicrobial activity against methicillin-resistant Staphylococcus aureus ATCC 29213 by CLSI method; assay type: functional
[4] = test system: Staphylococcus aureus; assay: Antimicrobial activity against vancomycin-resistant Staphylococcus aureus; assay type: functional
[5] = test system: Staphylococcus aureus; assay: Antimicrobial activity against daptomycin-nonsusceptible Staphylococcus aureus; assay type: functional
[6] = target: T3, Penicillin-binding protein 4 (Staphylococcus aureus, UniProt P72355); assay: Binding affinity to methicillin-susceptible Staphylococcus aureus PBP 4
T3 sequence (P72355 whole entry): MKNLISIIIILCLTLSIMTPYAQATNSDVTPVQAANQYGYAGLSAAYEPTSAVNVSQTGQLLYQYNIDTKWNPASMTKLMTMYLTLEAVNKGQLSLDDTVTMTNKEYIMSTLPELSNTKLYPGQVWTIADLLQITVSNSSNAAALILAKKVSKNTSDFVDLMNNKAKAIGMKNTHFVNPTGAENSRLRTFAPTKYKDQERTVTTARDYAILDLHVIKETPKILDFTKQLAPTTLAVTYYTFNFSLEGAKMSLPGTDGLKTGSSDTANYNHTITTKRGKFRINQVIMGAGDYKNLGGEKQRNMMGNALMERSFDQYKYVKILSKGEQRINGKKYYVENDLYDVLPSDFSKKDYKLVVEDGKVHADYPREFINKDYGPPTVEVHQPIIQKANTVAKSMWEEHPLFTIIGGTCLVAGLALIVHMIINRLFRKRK

[7] = test system: Staphylococcus aureus; assay: Antimicrobial activity against community-acquired Staphylococcus aureus; assay type: functional
[8] = target: T4, Penicillin-binding protein 2 (Staphylococcus aureus, UniProt Q53729); assay: Binding affinity to methicillin-susceptible Staphylococcus aureus PBP 2
T4 sequence (Q53729 whole entry): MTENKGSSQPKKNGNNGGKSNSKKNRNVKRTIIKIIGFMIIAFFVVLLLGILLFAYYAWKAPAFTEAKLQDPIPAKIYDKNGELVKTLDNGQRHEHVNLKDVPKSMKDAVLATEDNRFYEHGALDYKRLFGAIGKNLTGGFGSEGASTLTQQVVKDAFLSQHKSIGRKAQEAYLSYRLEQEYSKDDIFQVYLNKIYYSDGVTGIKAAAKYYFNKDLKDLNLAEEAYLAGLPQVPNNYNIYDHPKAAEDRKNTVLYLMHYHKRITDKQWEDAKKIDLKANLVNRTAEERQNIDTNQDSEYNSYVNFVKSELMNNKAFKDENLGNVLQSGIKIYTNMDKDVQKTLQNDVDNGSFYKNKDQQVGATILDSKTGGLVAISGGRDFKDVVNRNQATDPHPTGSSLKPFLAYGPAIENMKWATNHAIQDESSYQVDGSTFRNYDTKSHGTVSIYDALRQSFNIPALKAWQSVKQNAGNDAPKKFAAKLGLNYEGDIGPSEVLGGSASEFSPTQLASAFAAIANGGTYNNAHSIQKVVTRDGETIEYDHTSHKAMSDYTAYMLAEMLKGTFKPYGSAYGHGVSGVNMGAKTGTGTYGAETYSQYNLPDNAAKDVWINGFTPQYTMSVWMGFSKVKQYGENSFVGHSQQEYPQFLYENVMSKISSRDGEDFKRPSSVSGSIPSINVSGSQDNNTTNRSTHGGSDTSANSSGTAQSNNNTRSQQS

[9] = test system: Staphylococcus aureus; assay: Antimicrobial activity against vancomycin-intermediate Staphylococcus aureus; assay type: functional
[10] = target: T5, Penicillin-binding protein 1 (Staphylococcus aureus, UniProt Q53725); assay: Binding affinity to methicillin-susceptible Staphylococcus aureus PBP 1
T5 sequence (Q53725 whole entry): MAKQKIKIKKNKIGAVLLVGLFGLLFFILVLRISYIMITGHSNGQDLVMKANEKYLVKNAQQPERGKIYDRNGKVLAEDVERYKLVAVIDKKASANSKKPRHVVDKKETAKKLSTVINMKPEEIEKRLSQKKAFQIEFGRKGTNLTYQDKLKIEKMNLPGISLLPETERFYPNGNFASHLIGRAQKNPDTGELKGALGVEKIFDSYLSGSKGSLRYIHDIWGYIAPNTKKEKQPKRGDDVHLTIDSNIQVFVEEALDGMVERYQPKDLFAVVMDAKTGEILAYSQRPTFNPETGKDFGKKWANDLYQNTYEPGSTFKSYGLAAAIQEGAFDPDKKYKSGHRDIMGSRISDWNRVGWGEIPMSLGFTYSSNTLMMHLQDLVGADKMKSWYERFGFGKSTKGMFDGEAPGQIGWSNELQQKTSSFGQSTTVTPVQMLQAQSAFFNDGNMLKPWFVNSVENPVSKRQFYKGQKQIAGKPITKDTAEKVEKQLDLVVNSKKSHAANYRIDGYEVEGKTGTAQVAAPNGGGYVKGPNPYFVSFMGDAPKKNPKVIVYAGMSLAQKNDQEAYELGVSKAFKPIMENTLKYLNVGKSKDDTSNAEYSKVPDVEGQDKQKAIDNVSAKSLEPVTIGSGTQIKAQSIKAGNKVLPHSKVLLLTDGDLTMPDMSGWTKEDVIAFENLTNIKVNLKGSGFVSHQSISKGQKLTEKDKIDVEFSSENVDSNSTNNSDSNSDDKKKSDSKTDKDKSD

[11] = target: T1, MecA; assay: Inhibition of methicillin-resistant Staphylococcus aureus PBP 2a
[12] = test system: Staphylococcus aureus; assay: Antimicrobial activity against methicillin-susceptible Staphylococcus aureus ATCC 29213 by M7-A7 dilution method; assay type: functional
[13] = target: T3, Penicillin-binding protein 4; assay: Inhibition of methicillin-susceptible Staphylococcus aureus ATCC 29213 PBP 4
[14] = test system: Staphylococcus aureus; assay: Antimicrobial activity against methicillin-resistant Staphylococcus aureus infected in patient with complicated skin and skin structure infection assessed as cure rate at 500 mg/kg, iv administered every 12 hrs; assay type: functional
[15] = target: T4, Penicillin-binding protein 2; assay: Inhibition of methicillin-susceptible Staphylococcus aureus ATCC 29213 PBP 2
[16] = target: T2, Penicillin-binding protein 2b; assay: Inhibition of methicillin-susceptible Staphylococcus aureus ATCC 29213 PBP 3
[17] = test system: Staphylococcus aureus; assay: Antimicrobial activity against methicillin-resistant Staphylococcus aureus infected in patient with complicated skin and skin structure infection assessed as cure rate at 1 g/kg, iv administered every 12 hrs; assay type: functional
[18] = target: T5, Penicillin-binding protein 1; assay: Inhibition of methicillin-susceptible Staphylococcus aureus ATCC 29213 PBP 1
[19] = target: T1, MecA; assay: Inhibition of methicillin-resistant Staphylococcus aureus OC 3726 PBP 2a
[20] = test system: Staphylococcus aureus; assay: Antimicrobial activity against methicillin-resistant Staphylococcus aureus in mouse systemic infection model; assay type: functional
[21] = test system: Staphylococcus aureus; assay: Ratio of MBC to MIC for methicillin-resistant Staphylococcus aureus; assay type: functional
[22] = test system: Staphylococcus aureus; assay: Antimicrobial activity against methicillin-resistant Staphylococcus aureus; assay type: functional
[23] = test system: Staphylococcus aureus; assay: Bactericidal activity against methicillin-resistant Staphylococcus aureus; assay type: functional

C[C@@H](O)[C@H]1C(=O)N2C(C(=O)[O-])=C(c3cn4cnc(C(=O)c5ccc[n+](CC(N)=O)c5)c4s3)[C@H](C)[C@H]12 showed an IC50 [1] of 262 nM.
Compound CCO/N=C(\C(=O)N[C@@H]1C(=O)N2C(C(=O)[O-])=C(Sc3nc(-c4cc[n+](C)cc4)cs3)CS[C@H]12)c1nsc(NP(=O)(O)O)n1 [CEFTAROLINE FOSAMIL] has an IC50 [2] of 71.6 nM, an MIC [3] of 0.25 µg/mL (≈ 0.365 µM) and an MIC [4] of 0.12 µg/mL (≈ 0.175 µM). It also gave an MIC [5] of 0.5 µg/mL (≈ 0.73 µM), an IC50 [6] greater than 1460 nM and an MIC90 [7] of 1 µg/mL (≈ 1.46 µM). For the same compound, the IC50 [8] was 49.7 nM, the MIC90 [9] was 1 µg/mL (≈ 1.46 µM) and the IC50 [10] was 146 nM. It also gave an IC50 [11] of 234 nM.
Compound CC(C)(O/N=C(\C(=O)N[C@@H]1C(=O)N2C(C(=O)[O-])=C(C[n+]3ccccc3)CS[C@H]12)c1csc(N)n1)C(=O)O [CEFTAZIDIME] has an MIC [12] greater than 128 µg/mL.
Compound Cc1oc(=O)oc1COC(=O)N1CC[C@@H](N2CC/C(=C\C3=C(C(=O)O)N4C(=O)[C@@H](NC(=O)/C(=N/O)c5nsc(N)n5)[C@H]4SC3)C2=O)C1 [CEFTOBIPROLE MEDOCARIL FREE ACID] has an IC50 [13] of 1450 nM, an Activity [14] of 92% and an IC50 [15] of 724 nM. For the same compound, the IC50 [16] was 72.4 nM, the MIC [12] was 2 µg/mL (≈ 2.9 µM) and the Activity [17] was 90%. The IC50 [18] was 145 nM and the IC50 [19] was 1300 nM.
CO/N=C(\C(=O)N[C@@H]1C(=O)N2C(C(=O)O)=C(CSc3nc(=O)c(O)nn3C)CS[C@H]12)c1csc(N)n1 [CEFTRIAXONE] showed an MIC [12] greater than 64 µg/mL.
In the case of CC(=O)NC[C@H]1CN(c2ccc(N3CCOCC3)c(F)c2)C(=O)O1 [LINEZOLID], the ED50 [20] is reported as 7.4 mg/kg.
C[C@H]1C=C(c2csc(SC3=C(C(=O)O)N4C(=O)[C@H]([C@@H](C)O)[C@H]4[C@H]3C)n2)CN1 [RAZUPENEM] showed a Ratio [21] of 1, an MIC90 [22] of 2 µg/mL (≈ 4.91 µM) and an MBC [23] of 0.5 µg/mL (≈ 1.23 µM). The ED50 [20] was 4.7 mg/kg.
Work on CN[C@H](CC(C)C)C(=O)N[C@H]1C(=O)N[C@@H](CC(N)=O)C(=O)N[C@H]2C(=O)N[C@H]3C(=O)N[C@H](C(=O)N[C@H](C(=O)O)c4cc(O)cc(O)c4-c4cc3ccc4O)[C@H](O)c3ccc(c(Cl)c3)Oc3cc2cc(c3O[C@@H]2O[C@H](CO)[C@@H](O)[C@H](O)[C@H]2O[C@H]2C[C@](C)(N)[C@H](O)[C@H](C)O2)Oc2ccc(cc2Cl)[C@H]1O [VANCOMYCIN] yielded an ED50 [20] of 6 mg/kg.
